Assay results reported in PubChem BioAssay (NCI).
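A five-concentration, 48-hour dose response in 96-well plates underlies each endpoint, interpolated linearly between surrounding concentrations. GI50: concentration for 50% inhibition of growth. TGI: total growth inhibition.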

What was measured:
Assay in all cases: DTP human tumour cell line panel, 48 h
OVCAR-5 ovarian = tested on: OVCAR-5 ovarian
T-47D breast = tested on: T-47D breast
TK-10 renal = tested on: TK-10 renal
EKVX NSCLC = tested on: EKVX NSCLC
SF-268 CNS = tested on: SF-268 CNS
RXF 393 renal = tested on: RXF 393 renal
SK-MEL-5 melanoma = tested on: SK-MEL-5 melanoma
HOP-62 NSCLC = tested on: HOP-62 NSCLC
BT-549 breast = tested on: BT-549 breast
SR leukemia = tested on: SR leukemia
OVCAR-4 ovarian = tested on: OVCAR-4 ovarian
U251 CNS = tested on: U251 CNS
SK-MEL-28 melanoma = tested on: SK-MEL-28 melanoma
SK-MEL-2 melanoma = tested on: SK-MEL-2 melanoma
MDA-MB-231 breast = tested on: MDA-MB-231 breast
PC-3 prostate = tested on: PC-3 prostate
RPMI-8226 leukemia = tested on: RPMI-8226 leukemia
HT29 colon = tested on: HT29 colon
OVCAR-8 ovarian = tested on: OVCAR-8 ovarian
MDA-MB-435 = tested on: MDA-MB-435
UO-31 renal = tested on: UO-31 renal
SW-620 colon = tested on: SW-620 colon
NCI-H23 lung = tested on: NCI-H23 lung
MALME-3M melanoma = tested on: MALME-3M melanoma
HOP-92 NSCLC = tested on: HOP-92 NSCLC
HL-60(TB) leukemia = tested on: HL-60(TB) leukemia
A498 renal = tested on: A498 renal
HCC-2998 colon = tested on: HCC-2998 colon
NCI-H522 lung = tested on: NCI-H522 lung
SNB-75 CNS = tested on: SNB-75 CNS
IGROV1 ovarian = tested on: IGROV1 ovarian
SK-OV-3 ovarian = tested on: SK-OV-3 ovarian
SNB-19 CNS = tested on: SNB-19 CNS
K-562 leukemia = tested on: K-562 leukemia
MOLT-4 leukemia = tested on: MOLT-4 leukemia
LOX IMVI melanoma = tested on: LOX IMVI melanoma
ACHN renal = tested on: ACHN renal
COLO 205 colon = tested on: COLO 205 colon
UACC-62 melanoma = tested on: UACC-62 melanoma
SN12C renal = tested on: SN12C renal
HCT-15 colon = tested on: HCT-15 colon
UACC-257 melanoma = tested on: UACC-257 melanoma
CAKI-1 renal = tested on: CAKI-1 renal
CCRF-CEM leukemia = tested on: CCRF-CEM leukemia
KM12 colon = tested on: KM12 colon
DU-145 prostate = tested on: DU-145 prostate
NCI-H226 lung = tested on: NCI-H226 lung
SF-295 CNS = tested on: SF-295 CNS
HCT-116 colon = tested on: HCT-116 colon
M14 melanoma = tested on: M14 melanoma
A549 NSCLC = tested on: A549 NSCLC
NCI/ADR-RES ovarian = tested on: NCI/ADR-RES ovarian
786-0 renal = tested on: 786-0 renal
NCI-H460 lung = tested on: NCI-H460 lung
HS 578T breast = tested on: HS 578T breast
OVCAR-3 ovarian = tested on: OVCAR-3 ovarian
MCF7 breast = tested on: MCF7 breast

C[C@@H]1C/C=C\C(=O)O[C@H](/C=C/C#C/C=C/C(C)(C)[C@@H](O)c2cccc(O)c2Br)[C@@H](C)/C=C/[C@H](C)C[C@H](OC(N)=O)C1
GI50 (OVCAR-5 ovarian): 32.2 nM
TGI (OVCAR-5 ovarian): 18.3 µM
GI50 (T-47D breast): 35.4 nM
TGI (T-47D breast): 22.9 µM
GI50 (TK-10 renal): 4.28 µM
TGI (TK-10 renal): 21.6 µM
GI50 (EKVX NSCLC): 71.6 nM
TGI (EKVX NSCLC): 18.7 µM
GI50 (SF-268 CNS): 40.2 nM
TGI (SF-268 CNS): 18.2 µM
GI50 (RXF 393 renal): 636 nM
TGI (RXF 393 renal): 7.81 µM
GI50 (SK-MEL-5 melanoma): 17.9 nM
TGI (SK-MEL-5 melanoma): 35.4 nM
GI50 (HOP-62 NSCLC): 633 nM
TGI (HOP-62 NSCLC): 21.4 µM
GI50 (BT-549 breast): 30.8 nM
TGI (BT-549 breast): 18.2 µM
GI50 (SR leukemia): 27.3 nM
TGI (SR leukemia): > 100 µM
GI50 (OVCAR-4 ovarian): 6.45 µM
TGI (OVCAR-4 ovarian): 22 µM
GI50 (U251 CNS): 70.6 nM
TGI (U251 CNS): 18.3 µM
GI50 (SK-MEL-28 melanoma): 278 nM
TGI (SK-MEL-28 melanoma): 12.9 µM
GI50 (SK-MEL-2 melanoma): 34.6 nM
TGI (SK-MEL-2 melanoma): 1010 nM
GI50 (MDA-MB-231 breast): 13.9 nM
TGI (MDA-MB-231 breast): 2120 nM
GI50 (PC-3 prostate): 45 nM
TGI (PC-3 prostate): 17.4 µM
GI50 (RPMI-8226 leukemia): 41.1 nM
TGI (RPMI-8226 leukemia): 6.45 µM
GI50 (HT29 colon): 29 nM
TGI (HT29 colon): 5.77 µM
GI50 (OVCAR-8 ovarian): 51.2 nM
TGI (OVCAR-8 ovarian): 23.2 µM
GI50 (MDA-MB-435): 33.2 nM
TGI (MDA-MB-435): 12.1 µM
GI50 (UO-31 renal): 22.7 nM
TGI (UO-31 renal): 79.9 nM
GI50 (SW-620 colon): 34.8 nM
TGI (SW-620 colon): 15.8 µM
GI50 (NCI-H23 lung): 319 nM
TGI (NCI-H23 lung): 21.6 µM
GI50 (MALME-3M melanoma): 41.9 nM
TGI (MALME-3M melanoma): 4.6 µM
GI50 (HOP-92 NSCLC): 22.8 nM
TGI (HOP-92 NSCLC): 83.6 nM
GI50 (HL-60(TB) leukemia): 38.2 nM
TGI (HL-60(TB) leukemia): 2260 nM
GI50 (A498 renal): 543 nM
TGI (A498 renal): 18.7 µM
GI50 (HCC-2998 colon): 54 nM
TGI (HCC-2998 colon): 11.8 µM
GI50 (NCI-H522 lung): 41.7 nM
TGI (NCI-H522 lung): 14.7 µM
GI50 (SNB-75 CNS): 255 nM
TGI (SNB-75 CNS): 21.2 µM
GI50 (IGROV1 ovarian): 34.4 nM
TGI (IGROV1 ovarian): 18.5 µM
GI50 (SK-OV-3 ovarian): 13.3 µM
TGI (SK-OV-3 ovarian): 27.3 µM
GI50 (SNB-19 CNS): 1660 nM
TGI (SNB-19 CNS): 19.1 µM
GI50 (K-562 leukemia): 33.2 nM
TGI (K-562 leukemia): > 32.7 µM
GI50 (MOLT-4 leukemia): 34 nM
TGI (MOLT-4 leukemia): 40.8 µM
GI50 (LOX IMVI melanoma): 16.7 nM
TGI (LOX IMVI melanoma): 44.7 nM
GI50 (ACHN renal): 40.5 nM
TGI (ACHN renal): 14.5 µM
GI50 (COLO 205 colon): 43.5 nM
TGI (COLO 205 colon): 21.4 µM
GI50 (UACC-62 melanoma): 23.9 nM
TGI (UACC-62 melanoma): 65.6 nM
GI50 (SN12C renal): 54.2 nM
TGI (SN12C renal): 14 µM
GI50 (HCT-15 colon): 34 nM
TGI (HCT-15 colon): 11.9 µM
GI50 (UACC-257 melanoma): 32.2 nM
TGI (UACC-257 melanoma): 4.08 µM
GI50 (CAKI-1 renal): 46.2 nM
TGI (CAKI-1 renal): 13.8 µM
GI50 (CCRF-CEM leukemia): 41.9 nM
TGI (CCRF-CEM leukemia): 33 µM
GI50 (KM12 colon): 25.2 nM
TGI (KM12 colon): 16.2 µM
GI50 (DU-145 prostate): 66.3 nM
TGI (DU-145 prostate): 19.4 µM
GI50 (NCI-H226 lung): 445 nM
TGI (NCI-H226 lung): 19 µM
GI50 (SF-295 CNS): 21.2 nM
TGI (SF-295 CNS): 48.5 nM
GI50 (HCT-116 colon): 36.2 nM
TGI (HCT-116 colon): 12.5 µM
GI50 (M14 melanoma): 23.6 nM
TGI (M14 melanoma): 63.9 nM
GI50 (A549 NSCLC): 33.2 nM
TGI (A549 NSCLC): 19.5 µM
GI50 (NCI/ADR-RES ovarian): 56.7 nM
TGI (NCI/ADR-RES ovarian): 16.4 µM
GI50 (786-0 renal): 36.1 nM
TGI (786-0 renal): 15.2 µM
GI50 (NCI-H460 lung): 23.4 nM
TGI (NCI-H460 lung): 11.2 µM
GI50 (HS 578T breast): 400 nM
TGI (HS 578T breast): 32.3 µM
GI50 (OVCAR-3 ovarian): 63.6 nM
TGI (OVCAR-3 ovarian): 15.7 µM
GI50 (MCF7 breast): 61.3 nM
TGI (MCF7 breast): 15.5 µM
